Tests used:
S. aureus 272123 [1] = test: Efflux pump inhibition assay (real-time ethidium bromide accumulation); type: cell-based, Staphylococcus aureus; conditions: compound 50 µM, EB 1 µg/mL, minute 60
Procedure: Compounds 1–20 were assessed for their capability of modulating ethidium bromide (EB) accumulation on two resistant strains. […] However, norA is a core gene of the S. aureus as a species, which means that the NorA pump occurs in all S. aureus strains.
(§1) Salmonella enterica serovar Typhimurium SE03, was used as a Gram-negative bacterium. This strain has a deletion of the acrA gene, which was predicted with the least affinity for the compounds. The aim of these studies was to perform a first screening of these compounds and their ability to modulate the efflux of EB. […] The relative fluorescence index (RFI) was calculated based on the means of relative fluorescence units, depicted in Table 2.
(§2) Compounds 1–20 were evaluated for their ability to inhibit efflux pumps in SE03 and S. aureus 272123 strains, through the real-time fluorimetry, monitoring the intracellular accumulation of EB, an efflux pump substrate. This was determined by the automated method using a CLARIOstar Plus plate reader (BMG Labtech, Ortenberg, Germany). Reserpine and CCCP were applied at 25 µM as positive controls, and the solvent DMSO was applied at 1% v/v. The bacterial strains were incubated in an appropriate culture media (TSB—S. aureus 272123; LB-B—SE03) at 37 °C until they reached an optical density (OD) between 0.4 and 0.6 at λ = 600 nm. The culture was centrifuged at 13,000× g for 3 min, and the pellet washed and resuspended with PBS. The suspension was centrifuged again in the same conditions and resuspended in PBS. The compounds were applied at 50 µM in a solution of a non-toxic concentration of EB (1 µg/mL) in PBS. Then, 50 µL of this solution were transferred into a 96-well black microtiter plate (Greiner Bio-One Hungary Kft, Mosonmagyaróvár, Fertősor, Hungary), and 50 µL of bacterial suspension (OD600 0.4–0.6) were added to each well. The plates were placed into the CLARIOstar plate reader, and the fluorescence was monitored at excitation and emission wavelengths of 530 nm and 600 nm every minute for one hour on a real-time basis. From the real-time data, the activity of the compounds, namely the RFI of the last time point (minute 60) of the EB accumulation assay, was calculated according to the following formula:(1) RFI=RFtreated−RFuntreated/RFuntreated where RFtreated is the relative fluorescence (RF) at the last time point of EB accumulation curve in the presence of the compound, and RFuntreated is the RF at the last time point of the EB accumulation curve of the untreated control, having only the solvent (DMSO) control. The accumulation curves were designed using Microsoft Excel®.

[2] = tested on: SE03 (acrA gene-inactivated Salmonella enterica serovar Typhimurium SL1344); test: as above; type: cell-based; conditions: compound 50 µM, EB 1 µg/mL, minute 60
Procedure: as §1, §2

S. aureus 272123 [3] = test: Inhibition of biofilm formation (crystal violet); type: cell-based, Staphylococcus aureus; conditions: half the MIC, or 100 µM if MIC >100 µM, 48 h, 30 °C
Procedure: The biofilm inhibition, presented in percentages (%), was calculated based on the mean of absorbance units.
The bacterial strains used were the Gram-positive S. aureus ATCC 25923 and S. aureus 272123. The detection of the biofilm formation was possible with the use of the dye crystal violet (CV; 0.1% v/v). The initial inoculum was incubated in TSB overnight, and then diluted to an OD600 of 0.1. Then, the bacterial suspension was added to 96-well microtiter plates and the compounds were added at half the MIC. […] The final volume in each well was 200 µL. […] The plates were incubated at 30 °C for 48 h, with gentle stirring (100 rpm). After this incubation period, the TSB medium was discarded, and the plates were washed with tap water to remove unattached cells. Afterwards, 200 µL of a 0.1% v/v CV solution were added to the wells and incubated for 15 min at room temperature. Then, the CV solution was removed from the wells, and the plates were washed again with tap water, and 200 µL of a 70% ethanolic solution were added to the wells. The biofilm formation was determined by measuring the OD600 using a Multiscan EX ELISA plate reader (Thermo Labsystems, Cheshire, WA, USA). The anti-biofilm effect of the compounds was expressed as the percentage (%) of decrease in biofilm formation.

[4] = tested on: Chromobacterium violaceum wild type 85 (wt85); test: Quorum sensing inhibition assay (disk, pigment production); type: cell-based; conditions: read-out: Quorum Sensing Inhibition (mm) ± SD
From the text: (§3) The sensor strain Chromobacterium violaceum CV026 and the acyl-homoserine lactones (AHLs) producer strain Sphingomonas paucimobilis Ezf 10-17 (EZF) were inoculated as parallel lines, and the AHL producers, Chromobacterium violaceum wild type 85 (wt85) and Serratia marcescens AS-1 were inoculated as a single line.
(§4) For the QS tests, all the bacteria used were Gram-negative. The bacteria used were Chromobacterium violaceum wild type 85 (wt85), characterized by the AHL signal molecule-mediated production of the purple violacein pigment, capable of endogenous QS-signal molecule production (N-hexanoyl-L-HSL), C. violaceum CV026 (CV026), a Tn5 transposase-mutant, AHL-signal molecule indicator strain (produces purple violacein pigment in the presence of AHL), which is incapable of endogenous QS-signal molecule-production, but useful in the detection of external stimuli, Sphingomonas paucimobilis Ezf 10-17 (EZF), AHL-producing-strain (used with C. violaceum CV026), and Serratia marcescens AS-1, characterized by the AHL signal molecule-mediated production of the orange–red pigment prodigiosin (2-methyl-3-pentyl-6-methoxyprodigiosin), capable of endogenous QS-signal molecule production (N-hexanoyl-L-HSL), were applied.
(§5) The QS inhibitory effect of the compounds was examined on the EZF and the sensor CV026 strains, on the wt85 strain, and on S. marcescens, for 4, 5, 11, 12, 16, 19, and 20. The method used was the parallel inoculation method, where pair combinations of the used sensor strain CV026 and the N-acyl-homoserine lactone (AHL)-producing strain EZF were inoculated directly onto the LB*-A agar surface in parallel, at an approximate distance of 5 mm from each other. S. marcescens AS-1 and wt85 were inoculated as a single line. Filter paper disks (7 mm in diameter) were placed on the center of the inoculated line(s) and impregnated with 8 µL of a solution of 10 mM of the compounds. […] The agar plates were incubated at room temperature (20 °C) for 24–48 h. The QS inhibition was accessed visually, through the inhibition of pigment production. The discolored, but intact, bacterial colonies were measured with a ruler.

Serratia marcescens AS-1 = test: as above; type: cell-based; conditions: AS1, read-out: Quorum Sensing Inhibition (mm) ± SD
From the text: as §3, §4, §5

[5] = tested on: EZF + CV026 (Sphingomonas paucimobilis Ezf 10-17 + Chromobacterium violaceum CV026); test: Quorum sensing inhibition assay (parallel inoculation, pigment production); type: cell-based; conditions: read-out: Quorum Sensing Inhibition (mm) ± SD
From the text: as §3, §4, §5

Cytotoxicity assay (MTT) = type: cell-based, mouse; conditions: mouse, NIH/3T3 mouse fibroblast cells, 24 h, MTT, read-out: Cytotoxicity IC50 (µM) ± SD
Procedure: In order to apply efflux pump inhibitors to treat patients, several issues should be addressed.
Mouse fibroblasts (NIH/3T3, ATCC CRL-1658TM) were cultivated in DMEM (Gibco 52100-039) and supplemented with 10% heat-inactivated fetal bovine serum (Biowest, VWR International Kft, Debrecen, Hungary), 2 mM of L-glutamine, 1 mM Na pyruvate, 100 U/L and 10 mg/L penicillin/streptomycin mixture (Sigma-Aldrich Chemie GmbH, Steinheim, Germany), respectively, and 0.1% nystatin (8.3 g/L in ethylene glycol). The adherent cells were detached using a combination of 0.25% Trypsin–Versene (EDTA) solution for 5 min at 37 °C. Before each cytotoxicity assay using this cell line, cells were seeded in untreated 96-well flat-bottom microtiter plates, following a 4-h incubation period in a humidified atmosphere (5% CO2, 95% air) at 37 °C [60].
The cytotoxicity of 4, 12, 16, 19, and 20 was assessed in NIH/3T3 cells. The compounds were added to the cells distributed into 96-well flat bottom microtiter plates at concentrations of […] and initially incubated for 24 h, after which a solution of MTT in PBS was added to each well and incubated for another 4 h. The concentrations used were the same as in the MIC assay. After this, 100 μL of SDS (10% in a 0.01 M HCl solution) were added to each well and incubated overnight at 37 °C. Doxorubicin was used as the positive control. Cell growth was determined in quadruplicate by measuring OD at λ = 540 nm (reference 630 nm) in a Multiscan EX ELISA reader (Thermo Labsystems, Cheshire, WA, USA). The percentage of inhibition of cell growth was determined according to the equation: (2) 100−(ODsample−ODmedium control/ODcell control−ODmedium control)×100

S. aureus ATCC 29213 = test: Inhibition of biofilm formation (crystal violet); type: cell-based, Staphylococcus aureus; conditions: half the MIC, or 100 µM if MIC >100 µM, 48 h, 30 °C

SMILES | RFI ± SD (relative fluorescence index) (S. aureus 272123 [1]) | RFI ± SD (relative fluorescence index) [2] | Inhibition of Biofilm Formation (%) ± SD (S. aureus 272123 [3]) | zone of inhibition at 10000 µM [4] | zone of inhibition at 10000 µM (Serratia marcescens AS-1) | zone of inhibition at 10000 µM [5] | IC50 at 24 h (Cytotoxicity assay (MTT)) | Inhibition of Biofilm Formation (%) ± SD (S. aureus ATCC 29213)
O=c1c2ccccc2oc2c(O)cccc12 [Compound 1] | −0.36 ± 0.03 ^1 | −0.01 ± 0.05 ^6 |  |  |  |  |  | 
COc1cc(CN[C@H](C)c2ccc(Cl)cc2)c2c(=O)c3ccccc3oc2c1OC [Compound 20] | 1.08 ± 0.82 ^4 | 2.09 ± 0.05 ^11 | 77.17 ± 4.45 ^4% | 0 mm | 0 mm | 0 mm | 35.1 ± 4.86 µM | 
COc1cc(C=O)c2c(=O)c3ccccc3oc2c1O [Compound 14] | −0.28 ± 0.06 ^2 | 0.02 ± 0.02 ^7 |  |  |  |  |  | 
Cc1cc(O)c(O)c2oc3ccccc3c(=O)c12 [Compound 6] | −0.91 ± 0.01 ^4 | −0.91 ± 0.01 ^9 |  |  |  |  |  | 
COc1cc(C=O)c2c(=O)c3ccccc3oc2c1OC [Compound 15] | 0.08 ± 0.07 ^4 | 0.13 ± 0.09 ^9 |  |  |  |  |  | 
COc1c(Cl)c(C)c2c(=O)c3ccccc3oc2c1OC [Compound 9] | −0.04 ± 0.26 ^4 | 0.05 ± 0.09 ^9 |  |  |  |  |  | 
Cc1c(O)cc2oc3ccccc3c(=O)c2c1O [Compound 5] | 0.16 ± 0.08 ^2 | 1.74 ± 0.22 ^7 | 61.62 ± 16.51 ^3% | 0 mm | 0 mm | 0 mm |  | 0 ^1%
COc1cccc2oc3ccccc3c(=O)c12 [Compound 11] |  |  | 39.95 ± 7.66 ^3% | 0 mm | 0 mm | 0 mm |  | 0 ^1%
O=c1c2ccccc2oc2ccc(O)c(O)c12 [Compound 3] | −0.05 ± 0.06 ^3 | 0.23 ± 0.04 ^8 |  |  |  |  |  | 
COC(=O)c1cc(OC)c(OC)c2oc3cc(OC)ccc3c(=O)c12 [Compound 17] | −0.34 ± 0.02 ^5 | −0.29 ± 0.08 ^10 |  |  |  |  |  | 
COc1cccc2c1C(=O)c1c(O)c3c(c(O)c1C2=O)C[C@@](O)(C(=O)CO)C[C@@H]3O[C@H]1C[C@H](N)[C@H](O)[C@H](C)O1 [Doxorubicin, reference compound] |  |  |  |  |  |  | 12.1 ± 0.81 µM | 
COc1ccc2c(=O)c3c(C)cc(OC)c(OC)c3oc2c1 [Compound 10] | 0.18 ± 0.20 ^5 | 0.24 ± 0.05 ^10 |  |  |  |  |  | 
COc1cc(C)c2c(=O)c3ccccc3oc2c1OC [Compound 8] | 0.15 ± 0.25 ^4 | 0.05 ± 0.11 ^9 |  |  |  |  |  | 
Cc1cc(O)c(O)c2oc3cc(O)ccc3c(=O)c12 [Compound 7] | −0.92 ± 0.00 ^5 | −0.87 ± 0.02 ^10 |  |  |  |  |  | 
COc1cc(CNCc2ccc(F)cc2)c2c(=O)c3ccccc3oc2c1OC [Compound 19] | 0.02 ± 0.02 ^3 | 2.86 ± 0.14 ^8 | 65.03 ± 9.86 ^4% | 0 mm | 0 mm | 0 mm | > 100 µM | 
CC(CN1c2ccccc2Sc2ccccc21)N(C)C (stereo not drawn) [PMZ, promethazine, reference compound] |  |  |  | 41 ± 0.5 mm | 18 ± 0.8 mm | 40 ± 0.1 mm |  | 
COc1ccc2c(=O)c3c(CBr)cc(OC)c(OC)c3oc2c1 [Compound 13] | 0.53 ± 0.20 ^5 | 1.16 ± 0.64 ^10 |  |  |  |  |  | 
COc1cc(CNCc2ccc(Cl)cc2)c2c(=O)c3ccccc3oc2c1OC [Compound 18] | −0.01 ± 0.04 ^3 | 0.04 ± 0.04 ^8 |  |  |  |  |  | 

— article PMC8158687, “Xanthones Active against Multidrug Resistance and Virulence Mechanisms of Bacteria” (Antibiotics, 2021)
